Legend:
[1] = tested on: A49492 (Streptomyces capillispira); assay: Antibiotic disk sensitivity test of A49492; note: key: +: a plus indicates that a zone of inhibition was formed; -: a minus sign indicates that there was no inhibition zone; type: cell-based; conditions: ISP No. 2 agar seeded with 2% vegetative inoculum; amount per disk: Erythromycin 15 μg, Keflin 30 μg, Lincomycin 2 μg, Nystatin 100 U, Polymixin B 300 U, Streptomycin 10 μg, Tetracycline 30 μg, Vancomycin 5 μg
Procedure: Sodium chloride and sucrose tolerance were measured using ISP No. 2 agar. Antibiotic sensitivity was determined with sensitivity discs placed onto the surface of ISP No. 2 agar plates seeded with 2% vegetative inoculum.
In the table below, the column headed "Amount" indicates the amount of the antibiotic deposited on each disk.

[2] = tested on: enzyme produced by Streptomyces capillispira; assay: Rate of enzymatic deesterification of cephalosporin methyl esters (titrimetric / spot-plate); type: biochemical
Procedure: Another detection method, called the spot plate method, was carried out by pipetting a carefully measured amount, usually 10 μl., of the mixture to be analyzed onto a filter paper sheet which had small zones outlined by lacquer so that liquids placed on the zones were isolated from each other. If the substrate compound was a nucleus ester, so that acylation was necessary, each zone was also spotted with 10 μl. of 2% sodium bicarbonate solution, and 20 μl. of 2.5% phenoxyacetyl chloride in petroleum ether. The spots were air-dried, and the paper sheets were overlaid on the agar surface of an assay plate which had been seeded with a spore suspension of B. subtilis. The sheets were left on the agar plates for about 45 minutes, and were then removed and the agar plates were incubated at 25° overnight. The sizes of the zones of inhibition were then measured, and the amount of cephalosporin acid in the sample was determined by comparison with the sizes of the zones produced by known amounts of the cephalosporin acid which was the product of the deesterification.
The above biological analytical methods are useful both for unpurified fermentation mixtures, and for purified enzyme preparations. Purified preparations are readily analyzed by titrimetric methods which determine the amount of acid produced by measuring the amounts of base needed to maintain constant pH during the reaction. Thus, the deesterification reaction is easily monitored with an automatic titrator by adding the enzyme preparation to an appropriate substrate solution and following the course of deesterification by the amount of base added to the sample by the automatic titrator.
The activity of the enzyme preparations in the following examples is described as a rate, usually measured in terms of (moles of substrate deesterified)/(mg. of protein or cells)(minute). In some instances, the activity of the enzyme was described in other ways, and such instances are explained in the pertinent examples.
The substrate against which enzyme activity was measured was methyl 7-amino-3-methyl-3-cephem-4-carboxylate unless otherwise stated.
In this experiment, the enzyme preparation of Example 16 was used to deesterify methyl cephalexin, and the rate of hydrolysis was measured by pH-stat titration. Reaction mixtures were prepared as shown in Example 16, except that 1 ml. of the enzyme preparation and 2 ml. of substrate solution were used, so that the final reaction mixture contained 2.5 mg./ml. of protein.
A purified enzyme preparation, prepared substantially as described in Example 15 above, and containing 0.66 mg./ml. of protein was used to deesterify methyl 7-amino(phenyl)acetamido-3-chloro-3-cephem-4-carboxylate(methyl cefaclor). […]

[3] = tested on: enzyme produced by Streptomyces capillispira; assay: Deesterification shown by paper chromatography and bioautography; type: biochemical; conditions: 3-day culture, 30°, 16-20 hours; chromatogram acylated with phenoxyacetyl chloride; plate seeded with B. subtilis
Procedure: The usual method made use of filter paper chromatography, with 4/1 acetonitrile/water as the solvent.
If the substrate ester was a cephalosporin nucleus ester, having only an amino group at the 7-position, then the amount of acid could not be measured directly, because the nucleus acid is not active against the test organism.
The inoculated tube was shaken at 30° for 3 days, and then 4 ml. of the culture was transferred to a 50-ml. flask. To the flask was added 1 ml. of a filter-sterilized substrate solution containing 5 mg./ml. of methyl 7-amino-3-methyl-3-cephem-4-carboxylate at pH 7.0.
The flask was then incubated with shaking at 30° for 16-20 hours to allow the enzyme to deesterify the substrate compound.
The supernatant from the centrifugation was evaluated by paper chromatography as described above, using 4/1 acetonitrile/water as the solvent.
A substrate solution containing about 2 mg./ml. of methyl 7-amino(phenyl)acetamido-3-methyl-3-cephem-4-carboxylate (methyl cephalexin) was prepared in water, at pH 7.2. […] The mixture was shaken at 30° for 4 hours, and was then analyzed by paper chromatography, overlaying the chromatograms on nutrient agar plates seeded with Sarcina lutea.

Molecule	Result (zone of inhibition, disk sensitivity) [1]	further results
CC[C@H]1OC(=O)[C@H](C)[C@@H](O[C@H]2C[C@@](C)(OC)[C@@H](O)[C@H](C)O2)[C@H](C)[C@@H](O[C@@H]2O[C@H](C)C[C@H](N(C)C)[C@H]2O)[C@](C)(O)C[C@@H](C)C(=O)[C@H](C)[C@@H](O)[C@]1(C)O [Erythromycin]	-	
CC(=O)OCC1=C(C(=O)O)N2C(=O)[C@@H](NC(=O)Cc3cccs3)[C@H]2SC1 [Keflin]	-	
CCC[C@@H]1C[C@@H](C(=O)N[C@@H]([C@H]2O[C@H](SC)[C@H](O)[C@@H](O)[C@H]2O)[C@@H](C)O)N(C)C1 [Lincomycin]	-	
C[C@@H]1[C@H](O)[C@@H](C)/C=C/C=C/CC/C=C/C=C/C=C/C=C/C(O[C@H]2O[C@H](C)[C@@H](O)[C@H](N)[C@@H]2O)CC2O[C@](O)(CC(O)C(O)CCC(O)CC(O)CC(O)CC(=O)O[C@H]1C)CC(O)C2C(=O)O (stereo partly shown) [Nystatin]	-	
[H]/N=C(/N)N[C@H]1[C@H](O)[C@@H](O)[C@H](O[C@@H]2O[C@@H](C)[C@](O)(C=O)[C@H]2O[C@@H]2O[C@@H](CO)[C@H](O)[C@@H](O)[C@@H]2NC)[C@@H](N/C(N)=N\[H])[C@@H]1O [Streptomycin]	+	
CN(C)C1C(=O)C(C(N)=O)=C(O)C2(O)C(=O)C3=C(O)c4c(O)cccc4C(C)(O)C3CC12 (stereo not shown) [Tetracycline]	+	
CN[C@H](CC(C)C)C(=O)N[C@H]1C(=O)N[C@@H](CC(N)=O)C(=O)N[C@H]2C(=O)N[C@H]3C(=O)N[C@H](C(=O)N[C@H](C(=O)O)c4cc(O)cc(O)c4-c4cc3ccc4O)[C@H](O)c3ccc(c(Cl)c3)Oc3cc2cc(c3O[C@@H]2O[C@H](CO)[C@@H](O)[C@H](O)[C@H]2O[C@H]2C[C@](C)(N)[C@H](O)[C@H](C)O2)Oc2ccc(cc2Cl)[C@H]1O [Vancomycin]	+	
COC(=O)C1=C(C)CS[C@@H]2C(N)C(=O)N12 (stereo partly shown) [methyl 7-amino-3-methyl-3-cephem-4-carboxylate]		Km value for the enzyme [2]: about 2.3 mg./ml.; lowest reaction rate ([2]; 15°, pH 8.0, Sephacryl-purified enzyme, automatic titrator, corrected for non-enzymatic hydrolysis): 1e-05 mol/min (liter); highest reaction rate ([2]; 30°, pH 8.0, Sephacryl-purified enzyme, automatic titrator, corrected for non-enzymatic hydrolysis): 1.9×10^-5 moles of ester hydrolyzed/(minute) (liter of reaction mixture); activity of cell sonicate supernatant ([2]; supernatant containing 14.4 mg./ml. of protein, Example 15): 2.2×10^-5 moles of ester hydrolyzed/(minute) (liter); deesterification in culture, zone of inhibition after acylation [3]: zone of inhibition
Polymixin B	-	
